Conditions: Liquid, Falling or rolling sphere viscometry

CCCCC(CC)COC(=O)c1ccc(C(=O)OCC(CC)CCCC)c(C(=O)OCC(CC)CCCC)c1 (stereo not drawn) [tris(2-ethylhexyl) trimellitate]
Conditions	viscosity [mPa·s]
315.1 K, 8710 kPa	92.64
315.1 K, 23090 kPa	125
315.1 K, 36550 kPa	163.5
315.1 K, 69620 kPa	301.3
315.1 K, 71420 kPa	310.8
315.1 K, 104200 kPa	540.6
315.1 K, 138800 kPa	934
347.1 K, 9180 kPa	22.72
347.1 K, 22490 kPa	28.88
347.1 K, 36420 kPa	36.54
347.1 K, 70160 kPa	62.43
347.1 K, 70370 kPa	62.32
347.1 K, 104100 kPa	101.1
347.1 K, 138500 kPa	159.1
347.1 K, 173500 kPa	244.9
347.1 K, 219900 kPa	420.8
387.5 K, 11780 kPa	7.262
387.5 K, 22080 kPa	8.542
387.5 K, 36110 kPa	10.48
387.5 K, 70650 kPa	16.6
387.5 K, 72750 kPa	17.21
387.5 K, 104700 kPa	25.32
387.5 K, 140100 kPa	37.04
387.5 K, 173400 kPa	51.68
387.5 K, 215400 kPa	77.27
428.6 K, 9400 kPa	3.143
428.6 K, 21670 kPa	3.632
428.6 K, 36940 kPa	4.46
428.6 K, 70470 kPa	6.643
428.6 K, 105400 kPa	9.7
428.6 K, 139500 kPa	13.2
428.6 K, 172300 kPa	17.63
428.6 K, 203200 kPa	22.51
428.6 K, 237600 kPa	29.74
477.8 K, 11620 kPa	1.649
477.8 K, 23680 kPa	1.916
477.8 K, 37690 kPa	2.232
477.8 K, 37760 kPa	2.235
477.8 K, 70980 kPa	3.227
477.8 K, 105500 kPa	4.336
477.8 K, 106000 kPa	4.336
477.8 K, 139300 kPa	5.743
477.8 K, 174200 kPa	7.352
477.8 K, 196800 kPa	8.536
477.8 K, 219300 kPa	10.02
477.8 K, 240800 kPa	11.62
527.4 K, 10410 kPa	1.015
527.4 K, 23110 kPa	1.161
527.4 K, 36430 kPa	1.333
527.4 K, 69910 kPa	1.79
527.4 K, 105200 kPa	2.466
527.4 K, 105700 kPa	2.469
527.4 K, 139000 kPa	3.097
527.4 K, 172900 kPa	3.835
527.4 K, 200700 kPa	4.578
527.4 K, 201600 kPa	4.601
527.4 K, 223700 kPa	5.224
527.4 K, 241600 kPa	5.761

From the NIST ThermoML archive (doi:10.1021/acs.jced.6b00128)
